Source: ChEMBL document CHEMBL1201862, “PubChem BioAssay data set” (2004)
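Five concentrations, 48 hours, 96-well plates. GI50: concentration for 50% inhibition of growth.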 Calls of active or inactive are those of the source. Rule as the data show it: active = GI50 up to about 1.1 µM and inactive = higher.

Tests used:
Assay in all cases: inhibition of tumour cell growth, NCI panel, 48 h
786-0 = tested on: 786-0
A498 = tested on: A498
A549 = tested on: A549
ACHN = tested on: ACHN
BT-549 = tested on: BT-549
CAKI-1 = tested on: CAKI-1
COLO 205 = tested on: COLO 205
DU-145 = tested on: DU-145
EKVX = tested on: EKVX
HCT-116 = tested on: HCT-116
HCT-15 = tested on: HCT-15
HL-60 = tested on: HL-60
HOP-62 = tested on: HOP-62
HOP-92 = tested on: HOP-92
HT-29 = tested on: HT-29
Hs-578T = tested on: Hs-578T
IGROV-1 = tested on: IGROV-1
K562 = tested on: K562
KM12 = tested on: KM12
LOX IMVI = tested on: LOX IMVI
M14 = tested on: M14
MCF7 = tested on: MCF7
MDA-MB-231 = tested on: MDA-MB-231
MDA-MB-435 = tested on: MDA-MB-435
MDA-N = tested on: MDA-N
MOLT-4 = tested on: MOLT-4
Malme-3M = tested on: Malme-3M
NCI-H226 = tested on: NCI-H226
NCI-H23 = tested on: NCI-H23
NCI-H460 = tested on: NCI-H460
NCI-H522 = tested on: NCI-H522
NCI/ADR-RES = tested on: NCI/ADR-RES
OVCAR-3 = tested on: OVCAR-3
OVCAR-4 = tested on: OVCAR-4
OVCAR-5 = tested on: OVCAR-5
OVCAR-8 = tested on: OVCAR-8
PC-3 = tested on: PC-3
RPMI-8226 = tested on: RPMI-8226
RXF 393 = tested on: RXF 393
SF-268 = tested on: SF-268
SF-295 = tested on: SF-295
SF-539 = tested on: SF-539
SK-MEL-28 = tested on: SK-MEL-28
SK-MEL-2 = tested on: SK-MEL-2
SK-MEL-5 = tested on: SK-MEL-5
SK-OV-3 = tested on: SK-OV-3
SN12C = tested on: SN12C
SNB-19 = tested on: SNB-19
SR = tested on: SR
SW-620 = tested on: SW-620
T47D = tested on: T47D
TK-10 = tested on: TK-10
U-251 = tested on: U-251
UACC-257 = tested on: UACC-257
UACC-62 = tested on: UACC-62
UO-31 = tested on: UO-31
CCRF-CEM = tested on: CCRF-CEM
HCC 2998 = tested on: HCC 2998
SNB-75 = tested on: SNB-75

For `CN1CCc2nc(N)nc(-c3nc(N)nc4c3CN(C)CC4)c2C1`, the GI50 (786-0) was > 100 µM (inactive), the GI50 (A498) was > 100 µM (inactive) and the GI50 (A549) was > 100 µM (inactive). For the same compound, the GI50 (ACHN) was > 100 µM (inactive), the GI50 (BT-549) was > 100 µM (inactive) and the GI50 (CAKI-1) was > 100 µM (inactive). For the same compound, the GI50 (COLO 205) was > 100 µM (inactive), the GI50 (DU-145) was > 100 µM (inactive) and the GI50 (EKVX) was > 100 µM (inactive). For the same compound, the GI50 (HCT-116) was > 100 µM (inactive), the GI50 (HCT-15) was > 100 µM and the GI50 (HL-60) was > 100 µM (inactive). For the same compound, the GI50 (HOP-62) was > 100 µM (inactive), the GI50 (HOP-92) was > 100 µM (inactive) and the GI50 (HT-29) was > 100 µM (inactive). The GI50 (Hs-578T) was > 100 µM (inactive), the GI50 (IGROV-1) was > 100 µM (inactive) and the GI50 (K562) was 75.9 µM (inactive). The GI50 (KM12) was > 100 µM (inactive), the GI50 (LOX IMVI) was > 100 µM (inactive) and the GI50 (M14) was > 100 µM (inactive). For the same compound, the GI50 (MCF7) was > 100 µM (inactive), the GI50 (MDA-MB-231) was > 100 µM (inactive) and the GI50 (MDA-MB-435) was > 100 µM (inactive). The GI50 (MDA-N) was > 100 µM (inactive), the GI50 (MOLT-4) was > 100 µM (inactive) and the GI50 (Malme-3M) was > 100 µM (inactive). The GI50 (NCI-H226) was > 100 µM (inactive), the GI50 (NCI-H23) was > 100 µM (inactive) and the GI50 (NCI-H460) was > 100 µM (inactive). The GI50 (NCI-H522) was > 100 µM (inactive), the GI50 (NCI/ADR-RES) was > 100 µM (inactive) and the GI50 (OVCAR-3) was > 100 µM (inactive). The GI50 (OVCAR-4) was > 100 µM (inactive), the GI50 (OVCAR-5) was > 100 µM (inactive) and the GI50 (OVCAR-8) was > 100 µM (inactive). For the same compound, the GI50 (PC-3) was > 100 µM (inactive), the GI50 (RPMI-8226) was > 100 µM (inactive) and the GI50 (RXF 393) was > 100 µM (inactive). For the same compound, the GI50 (SF-268) was > 100 µM (inactive), the GI50 (SF-295) was > 100 µM (inactive) and the GI50 (SF-539) was > 100 µM (inactive). The GI50 (SK-MEL-28) was > 100 µM (inactive), the GI50 (SK-MEL-2) was > 100 µM (inactive) and the GI50 (SK-MEL-5) was > 100 µM (inactive). For the same compound, the GI50 (SK-OV-3) was > 100 µM (inactive), the GI50 (SN12C) was > 100 µM (inactive) and the GI50 (SNB-19) was > 100 µM (inactive). For the same compound, the GI50 (SR) was 33 µM (inactive), the GI50 (SW-620) was > 100 µM (inactive) and the GI50 (T47D) was > 100 µM (inactive). For the same compound, the GI50 (TK-10) was > 100 µM (inactive), the GI50 (U-251) was > 100 µM (inactive) and the GI50 (UACC-257) was > 100 µM (inactive). For the same compound, the GI50 (UACC-62) was > 100 µM (inactive) and the GI50 (UO-31) was > 100 µM (inactive).
For `CC1=NN(C(=O)CC(=O)NC(=O)/C=C\c2ccccc2)C(=O)C1/N=N/c1ccc([N+](=O)[O-])cc1` (stereo unspecified), the GI50 (786-0) was 83.8 µM (inactive), the GI50 (A498) was 20.5 µM (inactive) and the GI50 (A549) was 84.5 µM (inactive). For the same compound, the GI50 (ACHN) was 37.4 µM (inactive), the GI50 (BT-549) was 19.1 µM (inactive) and the GI50 (CAKI-1) was 30.6 µM (inactive). For the same compound, the GI50 (CCRF-CEM) was 42 µM (inactive), the GI50 (COLO 205) was > 100 µM (inactive) and the GI50 (DU-145) was 55.7 µM (inactive). For the same compound, the GI50 (EKVX) was 46.9 µM (inactive), the GI50 (HCC 2998) was > 100 µM (inactive) and the GI50 (HCT-116) was 35.6 µM (inactive). The GI50 (HCT-15) was > 100 µM, the GI50 (HL-60) was > 100 µM (inactive) and the GI50 (HOP-62) was > 100 µM (inactive). For the same compound, the GI50 (HOP-92) was 38.3 µM (inactive), the GI50 (HT-29) was > 100 µM (inactive) and the GI50 (Hs-578T) was 44 µM (inactive). For the same compound, the GI50 (IGROV-1) was 58.3 µM (inactive), the GI50 (K562) was 53.2 µM (inactive) and the GI50 (KM12) was 30 µM (inactive). For the same compound, the GI50 (LOX IMVI) was > 100 µM (inactive), the GI50 (M14) was > 100 µM (inactive) and the GI50 (MCF7) was > 100 µM (inactive). For the same compound, the GI50 (MDA-MB-231) was > 100 µM (inactive), the GI50 (MDA-MB-435) was > 100 µM (inactive) and the GI50 (MDA-N) was > 100 µM (inactive). The GI50 (MOLT-4) was 60.1 µM (inactive), the GI50 (Malme-3M) was > 100 µM (inactive) and the GI50 (NCI-H23) was 40.2 µM (inactive). The GI50 (NCI-H460) was > 100 µM (inactive), the GI50 (NCI/ADR-RES) was > 100 µM (inactive) and the GI50 (OVCAR-3) was 50.7 µM (inactive). The GI50 (OVCAR-5) was > 100 µM (inactive), the GI50 (OVCAR-8) was > 100 µM (inactive) and the GI50 (PC-3) was > 100 µM (inactive). For the same compound, the GI50 (RPMI-8226) was 85.5 µM (inactive), the GI50 (RXF 393) was > 100 µM (inactive) and the GI50 (SF-268) was > 100 µM (inactive). For the same compound, the GI50 (SF-295) was 53.6 µM (inactive), the GI50 (SF-539) was > 100 µM (inactive) and the GI50 (SK-MEL-28) was > 100 µM (inactive). The GI50 (SK-OV-3) was > 100 µM (inactive), the GI50 (SN12C) was > 100 µM (inactive) and the GI50 (SNB-19) was > 100 µM (inactive). The GI50 (SNB-75) was 52.4 µM (inactive), the GI50 (SR) was > 10 µM (inactive) and the GI50 (SW-620) was > 100 µM (inactive). The GI50 (T47D) was > 100 µM (inactive), the GI50 (TK-10) was 48.5 µM (inactive) and the GI50 (U-251) was 35.3 µM (inactive). For the same compound, the GI50 (UACC-62) was 24.3 µM (inactive) and the GI50 (UO-31) was 48 µM (inactive).
With `CSC1=N/C(=C\c2ccco2)C(=O)N1CN1CCOCC1` the GI50 (786-0) was 48.6 µM (inactive), the GI50 (A498) was > 60.1 µM (inactive) and the GI50 (A549) was > 100 µM (inactive). The GI50 (ACHN) was 43 µM (inactive), the GI50 (BT-549) was 19.4 µM (inactive) and the GI50 (CAKI-1) was 32 µM (inactive). For the same compound, the GI50 (CCRF-CEM) was 30.4 µM (inactive), the GI50 (COLO 205) was 38.5 µM (inactive) and the GI50 (DU-145) was 42.3 µM (inactive). The GI50 (EKVX) was > 79.1 µM (inactive), the GI50 (HCC 2998) was 25.7 µM (inactive) and the GI50 (HCT-116) was 29.2 µM (inactive). The GI50 (HCT-15) was 33.7 µM, the GI50 (HOP-62) was > 100 µM (inactive) and the GI50 (HT-29) was 33.6 µM (inactive). For the same compound, the GI50 (Hs-578T) was > 100 µM (inactive), the GI50 (IGROV-1) was > 61.1 µM (inactive) and the GI50 (K562) was 42.5 µM (inactive). The GI50 (KM12) was > 70.1 µM (inactive), the GI50 (LOX IMVI) was 30.7 µM (inactive) and the GI50 (M14) was > 92.3 µM (inactive). For the same compound, the GI50 (MCF7) was 23 µM (inactive), the GI50 (MDA-MB-231) was > 63.1 µM (inactive) and the GI50 (MDA-MB-435) was > 62.2 µM (inactive). The GI50 (MDA-N) was > 100 µM (inactive), the GI50 (MOLT-4) was 59.7 µM (inactive) and the GI50 (Malme-3M) was > 46.1 µM (inactive). For the same compound, the GI50 (NCI-H226) was 75 µM (inactive), the GI50 (NCI-H23) was > 100 µM (inactive) and the GI50 (NCI-H460) was 13.9 µM (inactive). The GI50 (NCI-H522) was > 100 µM (inactive), the GI50 (NCI/ADR-RES) was > 61.8 µM (inactive) and the GI50 (OVCAR-3) was > 100 µM (inactive). For the same compound, the GI50 (OVCAR-4) was > 100 µM (inactive), the GI50 (OVCAR-5) was > 100 µM (inactive) and the GI50 (OVCAR-8) was 58.9 µM (inactive). For the same compound, the GI50 (PC-3) was > 93.8 µM (inactive), the GI50 (RPMI-8226) was 32.7 µM (inactive) and the GI50 (RXF 393) was 20.4 µM (inactive). The GI50 (SF-268) was > 44.4 µM (inactive), the GI50 (SF-295) was > 100 µM (inactive) and the GI50 (SF-539) was 17.2 µM (inactive). For the same compound, the GI50 (SK-MEL-28) was > 71.6 µM (inactive), the GI50 (SK-MEL-2) was > 91.4 µM (inactive) and the GI50 (SK-MEL-5) was 41.1 µM (inactive). For the same compound, the GI50 (SK-OV-3) was > 100 µM (inactive), the GI50 (SN12C) was > 52.8 µM (inactive) and the GI50 (SNB-19) was > 93.1 µM (inactive). For the same compound, the GI50 (SNB-75) was > 100 µM (inactive), the GI50 (SR) was 41.3 µM (inactive) and the GI50 (SW-620) was 31.7 µM (inactive). The GI50 (T47D) was 48.1 µM (inactive), the GI50 (TK-10) was > 58.1 µM (inactive) and the GI50 (U-251) was > 100 µM (inactive). For the same compound, the GI50 (UACC-257) was 29.7 µM (inactive), the GI50 (UACC-62) was 44.6 µM (inactive) and the GI50 (UO-31) was > 69.8 µM (inactive).
